Results on 90 compounds are retold here after PubChem BioAssay AID2823 (Broad Institute, 2010).

Each structure is given as a SMILES string. Calls of active or inactive are those of the source. No rule for the calls is given here. Where only a bound is given, the exact number is not on record here.

For the test, the target named is RanGTP-importin-beta complex (human Ran / KPNB1). The experiment in a line: Ran–importin-beta interaction inhibitors, confirmation, biochemical, FRET, CFP/YFP, cell-free homogeneous (AID 2823). The conditions noted are these: CFP-Ran/YFP-importin-beta FRET ratio.
By IC50 is commonly meant the point on the concentration scale where inhibition reaches its midpoint. `NC(=O)CN(Cc1ccccc1)S(=O)(=O)c1ccc2c(c1)OCCO2`: the IC50 was > 50 µM (inactive).

As for `Cc1ccc(S(=O)(=O)N2CCCN(c3nc4cc(C)ccc4cc3C#N)CC2)cc1`, the 50% inhibitory concentration (IC50) was 29.8 µM.

With `CNC(=O)c1c(C)[nH]c(=S)c(C#N)c1-c1ccco1`, the IC50 was > 50 µM (inactive).

Take `Cc1c(OC(=O)N(C)C)ccc2c1O/C(=C\c1ccco1)C2=O`: the IC50 is 12.5 µM.

Regarding `CCOC(=O)c1c(N)n(CCOC(=O)c2cccs2)c2nc3ccccc3nc12`, the IC50 was 39.3 µM.

Regarding `C=CCNC(=O)c1cccc(OC2CCN(CC(C)(C)C)CC2)c1`, the IC50 was > 50 µM (inactive).

Regarding `CCN1CCN(Cc2ccc(NC(=O)c3ccc(C)c(/C=C/c4cnc(Nc5cc(N6CCNCC6)nc(C)n5)cn4)c3)cc2C(F)(F)F)CC1`, the IC50 was 19.5 µM.

Take `COc1cc(S(=O)(=O)NCCCN2CCOCC2)ccc1Cl`: the IC50 was > 50 µM (inactive).

With `COc1ccc(NC(=O)/C(C#N)=C\c2ccc(N3CCOCC3)o2)cc1`, the IC50 is > 50 µM (inactive).

`O=C(c1ccc(F)cc1)c1cc2ccc(O)cc2oc1=O`: the IC50 was 11.4 µM.

Take `c1ccc2c(c1)nc(NCC1CCCO1)c1nnnn12` (stereo not given): the IC50 was 30.3 µM.

Take `Cc1ccccc1-n1c(=O)cc(N2CC(C)OC(C)C2)[nH]c1=O` (stereo not given): the IC50 is > 50 µM (inactive).

Consider `O=C(/C=C/c1ccccc1[N+](=O)[O-])N1CCN(c2ccc(F)cc2)CC1`, for which the IC50 was > 50 µM (inactive).

As for `CC1(C)CC(=O)C/C(=N\NC(=O)Cc2ccccc2)C1`, the IC50 is > 50 µM (inactive).

Turning to `COCCNC(=O)/C(C#N)=C/c1cn(CC(=O)NCc2ccco2)c2ccccc12`, the IC50 is 40.4 µM.

As for `Cc1cccc(-n2c(C)cc(/C=C3\C(=N)N4N=C(CC(C)C)SC4=NC3=O)c2C)c1`, the IC50 is 10.6 µM.

On to `CN1CCN(C(=O)c2cc3nc(-c4ccccc4)cc(C(F)(F)F)n3n2)CC1`, for which the IC50 is > 50 µM (inactive).

In the case of `CCOC(=O)CNC(=O)C1CCCN(c2ncccn2)C1` (stereo not given), the IC50 was > 50 µM (inactive).

Take `OCC1(Cc2cccc(Cl)c2)CCCN(Cc2ccc3cc(F)ccc3n2)C1` (stereo not given): the IC50 is > 50 µM (inactive).

In the case of `O=C(CN1C2CCCC1CC(NC(=O)c1ccco1)C2)Nc1ccccc1C(F)(F)F` (stereo not given), the IC50 was > 50 µM (inactive).

Consider `Nc1c(C(=O)NC2CCCC2)c2nc3ccccc3nc2n1/N=C/c1ccco1`, for which the IC50 is 14.3 µM.

As for `COc1ccc(-n2cnc3cc(NCc4cccs4)ccc32)cc1`, the IC50 is > 50 µM (inactive).

On to `c1cncc(Nc2c3ccccc3nc3ccccc23)c1`, for which the IC50 is > 50 µM (inactive).

As to `COc1ccc(-c2c(N)nnc3c2[nH]c2ccccc23)cc1OC`, the IC50 is > 50 µM (inactive).

Turning to `Cc1cc(Cl)ccc1C(=O)C1CCCN(C(=O)c2n[nH]c3c2CCCC3)C1` (stereo not given), the IC50 is > 50 µM (inactive).

Turning to `c1c2c(cc3sc(N4CCOCC4)nc13)OCCO2`, the IC50 was > 50 µM (inactive).

`COc1cccc(C(=O)/C=C/Nc2cc(C)ccc2O)c1`: the IC50 was > 50 µM (inactive).

In the case of `Oc1c(C=Nc2ccccc2)sc(=S)n1Cc1ccccc1`, the IC50 is > 50 µM (inactive).

For the compound `CC(C)OCCCNC(=O)CCSc1ccc(Cl)cc1`, the IC50 was > 50 µM (inactive).

For the compound `O=C(Oc1ccc2c3c(c(=O)oc2c1)CCCC3)c1ccco1`, the IC50 was 16 µM.

On to `CCOC(=O)C1=C(C)NC2=C(C(=O)C(C(=O)OCC)C(c3ccccc3OC)C2)C1c1ccccn1` (stereo not given), for which the IC50 is 26.2 µM.

Consider `COc1cccc(C2=NOC(C(=O)Nc3cc(C)on3)C2)c1` (stereo not given), for which the IC50 was > 50 µM (inactive).

In the case of `O=C1NC(=S)S/C1=C1\Sc2ccccc2N1CCCS(=O)(=O)O`, the IC50 is 12.5 µM.

Consider `CC(=O)Nc1cc(C(=O)N(C)Cc2ccco2)ccc1Sc1ccc(Cl)cc1`, for which the IC50 was > 50 µM (inactive).

For the compound `O=C(Cc1cc(=O)oc2cc(O)ccc12)N[C@@H](Cc1c[nH]c2ccccc12)C(=O)O`, the IC50 was > 50 µM (inactive).

With `COCCCNC(=O)/C(C#N)=C/c1c(N2CCN(c3ccccc3)CC2)nc2ccccn2c1=O`, the concentration for half-maximal inhibition (IC50) is 25.9 µM.

Regarding `CC(=O)c1cc(C#N)c(N2CC(C)OC(C)C2)nc1C` (stereo not given), the IC50 is > 50 µM (inactive).

`COC(=O)c1n[nH]c2ccccc12`: the IC50 is 47.7 µM.

Consider `CCOc1ccccc1NC1=CC(=O)CC(c2ccccc2)C1` (stereo not given), for which the IC50 is > 50 µM (inactive).

`Cc1cc(O)ccc1NC1=CC(=O)CC(C)(C)C1`: the IC50 was > 50 µM (inactive).

For the compound `N#Cc1c2ncn(CC(=O)c3ccc(Br)cc3)c(=O)c2c2n1CCC2`, the IC50 was > 50 µM (inactive).

Consider `COc1cc([C@@H]2[C@H]3CN(C)CC=C3C(C#N)=C(N)C2(C#N)C#N)cc2c1OCO2`, for which the IC50 was 21 µM.

Take `CCOc1ccc(N=Cc2c(O)n(-c3cccc(C)n3)c(=O)c3ccccc23)cc1`: the IC50 was > 26 µM (inactive).

For `COC(=O)C1=CN(Cc2cccs2)C=C(C(=O)OC)C1c1ccc(OC)cc1OC`, the IC50 was 6.08 µM.

Regarding `CCOC(=O)c1c(N)n(CCN2CCCCC2)c2nc3ccccc3nc12`, the IC50 was 32.3 µM.

For `O=C(Nc1nc2ccc(S(=O)(=O)N3CCCCC3)cc2s1)c1cccnc1`, the IC50 was > 50 µM (inactive).

Turning to `CC(=O)c1cccc(OCC(=O)N(C)CC(=O)Nc2ccc(F)cc2)c1`, the IC50 is > 50 µM (inactive).

Take `Cc1ccc(C(=O)NNC2CC(=O)N(c3ccc4c(c3)OCCO4)C2=O)cc1` (stereo not given): the IC50 was > 50 µM (inactive).

As to `COc1ccc(CNCc2c(O)c(Cl)cc3c(C)c(C)c(=O)oc23)c(OC)c1`, the IC50 was 6.06 µM.

As to `N#C/C(=C\c1ccc(O)c(Br)c1)C(=O)NCc1ccccc1`, the IC50 was 25.8 µM.

In the case of `Cc1ccc(-c2ccc(/C=C(\C#N)C(N)=S)n2C)cc1`, the IC50 is > 50 µM (inactive).

Consider `COC(=O)Cn1c(=O)c2c(nc3n2CCCN3CCc2ccccc2)n(C)c1=O`, for which the IC50 is > 50 µM (inactive).

Regarding `COC(=O)C1=CN(Cc2ccc(OC)c(OC)c2)C=C(C(=O)OC)C1c1ccccc1F`, the IC50 was 9.77 µM.

Regarding `Cc1ccc2cc(C#N)c(N3CCCN(C(=O)C4CCCO4)CC3)nc2c1` (stereo not given), the IC50 was 20.5 µM.

Take `N#C/C(=C\c1ccc(N2CCOCC2)o1)C(=O)N1CCOCC1`: the IC50 is 4.66 µM.

As for `OCCNc1c2ccccc2nc2ccccc12`, the IC50 is 3.94 µM.

Consider `COc1cccc(-c2coc3c(C)c4oc(=O)c(CC(=O)O)c(C)c4cc23)c1`, for which the IC50 is > 50 µM (inactive).

`CCC(C)c1ccc(OCC(=O)O)cc1` (stereo not given): the IC50 is > 50 µM (inactive).

For the compound `Cc1ccccc1-n1nc2c(c1NC(=O)c1cc3ccccc3oc1=O)CS(=O)(=O)C2`, the IC50 was > 50 µM (inactive).

`COc1ccc(C2NC(=S)NC3=C2CCCC3=C2SCCS2)cc1` (stereo not given): the IC50 is > 50 µM (inactive).

On to `Cc1sc2c(c1C)C(=O)NC(c1ccccc1F)N2` (stereo not given), for which the IC50 was > 50 µM (inactive).

Take `Cc1ccccc1N=Cc1cc2c(cc1O)OC(N)=C(C#N)C2c1ccccc1` (stereo not given): the IC50 is > 50 µM (inactive).

`CC(=O)Nc1cccc(C(=O)N/N=C/c2ccc(F)cc2)c1`: the IC50 was > 50 µM (inactive).

Consider `Cc1ccc(OCC(=O)NCCNC(=O)c2ccc(C)nc2)cc1`, for which the IC50 was > 50 µM (inactive).

For `Clc1cccc(-c2ccc(C=Nc3ccc(N4CCOCC4)cc3)o2)c1Cl`, the IC50 was > 50 µM (inactive).

Take `O=c1[nH]c2cc(Br)cnc2nc1/C=C(\O)c1ccc(F)cc1`: the IC50 was > 50 µM (inactive).

Take `Cc1cc(C)c2c(c1)/C(=c1/sc3n(c1=O)CN(c1ccccc1)CN=3)C(=O)N2`: the IC50 is > 50 µM (inactive).

For `CSc1ncccc1C(=O)OCC(=O)c1cc2ccccc2o1`, the IC50 is > 50 µM (inactive).

As to `COc1ccc(-c2c(C)c3ccc(O)cc3oc2=O)cc1OC`, the IC50 was 37.2 µM.

`Cc1sc2nc(COC(=O)Cc3ccccc3)[nH]c(=O)c2c1C`: the IC50 was > 50 µM (inactive).

Take `CCC(CC)COC(=O)C1=C(C)NC(=O)NC1c1ccc(N(C)C)cc1` (stereo not given): the IC50 is > 50 µM (inactive).

For the compound `O=C(CSCC(=O)NC1CC1)Nc1ccccc1`, the IC50 is > 50 µM (inactive).

In the case of `CC1=NC(Nc2nc(C)c3ccccc3n2)=NC(C)(C)C1`, the IC50 was > 50 µM (inactive).

On to `CCn1c(SCC(=O)N(Cc2ccccc2)C2CCS(=O)(=O)C2)nc2ccccc2c1=O` (stereo not given), for which the IC50 was > 50 µM (inactive).

As to `COC(=O)c1ccc(NC(=O)C(=O)N2CCN(C(=S)Nc3ccccc3OC)CC2)cc1`, the IC50 was > 50 µM (inactive).

As to `Cc1cccc(Oc2nc(-c3cccc([N+](=O)[O-])c3)nc3ccccc23)c1C`, the IC50 was > 50 µM (inactive).

`CCn1nc(NC(=O)c2ccncc2)c2cc3ccc(C)cc3nc21`: the IC50 is 46.4 µM.

In the case of `O=C(Oc1c(Br)cc(C(=S)N2CCOCC2)cc1Br)c1ccc(Cl)cc1`, the IC50 was > 50 µM (inactive).

Regarding `CN(Cc1cnc2nc(N)nc(N)c2n1)c1ccc(C(=O)N[C@@H](CCC(=O)O)C(=O)O)cc1`, the IC50 was > 50 µM (inactive).

In the case of `O=c1cc(N2CCC3(CC2)OCCO3)[nH]c(=O)n1-c1ccc(Br)cc1`, the IC50 is > 50 µM (inactive).

Regarding `CC1CCN(c2cc(=O)n(C3CCCCC3)c(=O)[nH]2)CC1`, the IC50 was > 50 µM (inactive).

In the case of `CCN1CCc2c(sc(NC(=O)c3ccc(S(=O)(=O)N4CC(C)OC(C)C4)cc3)c2C(N)=O)C1` (stereo not given), the IC50 is > 50 µM (inactive).

As for `CCS(=O)(=O)c1ccc(S(=O)(=O)CC)s1`, the IC50 was > 50 µM (inactive).

As for `COc1ccc(-c2nc(/C=C3\C(C)=Nc4ccccc43)c(O)o2)cc1`, the IC50 was > 50 µM (inactive).

Turning to `CC(C)(C)c1ccc(S(=O)(=O)NCC(=O)N2CCN(C(=O)c3ccco3)CC2)cc1`, the IC50 was > 50 µM (inactive).

For `CCCC1C(C#N)=C(N)Oc2cc(C)n(C)c(=O)c21` (stereo not given), the IC50 is > 50 µM (inactive).

Consider `COCCOC(=O)C1=C(C)OC(N)=C(C(=O)OC)C12C(=O)Nc1ccccc12` (stereo not given), for which the IC50 was > 50 µM (inactive).

As for `COc1cc2c(cc1OC)CN(Cc1cc(=O)oc3cc(C)c(Cl)cc13)CC2`, the IC50 was > 50 µM (inactive).

For `COc1ccc(Oc2nc3c(C)cccn3c(=O)c2/C=C(\C#N)C(N)=O)cc1`, the IC50 is 9.6 µM.

As for `CSc1nc(-c2ccc(N(C)C)cc2)c(C#N)c(=O)n1C`, the IC50 is > 50 µM (inactive).
